Residues, ends and D or L forms follow the SMILES beside them. *: point of attachment. Cbz = O=C(OCc1ccccc1)*; CH2F = FC*
How the values were obtained:
OAT enzymatic activity = target: T1, OAT enzymatic activity (Mus musculus, UniProt P29758); experiment: Ornithine aminotransferase activity in crude mitochondrial extracts from mouse liver; type: biochemical; conditions: increasing concentrations
T1 construct: Crude mitochondrial extracts from mouse liver were assayed for ornithine aminotransferase activity; from tissue; host or cells: mouse liver, crude mitochondrial extract
T1 sequence (P29758 26-439): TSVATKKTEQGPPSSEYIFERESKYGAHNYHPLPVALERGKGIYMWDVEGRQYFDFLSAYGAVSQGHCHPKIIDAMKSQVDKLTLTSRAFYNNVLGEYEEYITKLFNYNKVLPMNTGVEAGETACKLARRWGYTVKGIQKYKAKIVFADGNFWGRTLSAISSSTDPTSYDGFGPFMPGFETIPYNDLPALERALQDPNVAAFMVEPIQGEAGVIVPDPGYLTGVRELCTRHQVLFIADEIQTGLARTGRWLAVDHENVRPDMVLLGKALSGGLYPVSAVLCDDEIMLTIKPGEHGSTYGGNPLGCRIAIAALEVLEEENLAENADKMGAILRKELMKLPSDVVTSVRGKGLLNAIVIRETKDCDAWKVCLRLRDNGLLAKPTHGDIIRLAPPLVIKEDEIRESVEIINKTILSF
Description: To determine if diazonamide binds to OAT directly, recombinant His-tagged hOAT was produced in bacteria, purified, and incubated with compound 3-coated avidin agarose. […] We next examined the impact of diazonamide binding on OAT enzymatic activity. Crude mitochondrial extracts from mouse liver were assayed for ornithine aminotransferase activity in the presence of increasing concentrations of compounds 2 or 3.

HeLa cell = HeLa cell growth inhibition; type: cell-based, human
Description: Biotin conjugate 3 (Table 1) was prepared to facilitate isolation of diazonamide binding proteins using avidin-based affinity chromatography. […] As a negative control, seco analog 5 was synthesized:
This molecule is identical to 3 except it lacks the biaryl linkage connecting carbons 16 and 18 (Table 1).

HeLa cells = experiment: Mitotic arrest and spindle phenotype in HeLa cells; type: cell-based, human; conditions: 30 nM, eighteen hours following dosage
Source text: Suitable spindle assembly systems include Xenopus egg extracts, Hela cells, COS-7 cells, CHO cells, U20S cells, etc. An agent-biased spindle assembly is a spindle-assembly that has a phenotype that differs from that of the first spindle assembly (i.e. the normal control). […] The spindle phenotypes are typically visualized by fixing the cells or cell extracts and differentially staining the α-tubulin and DNA [5]. Spindle assembly can also be visualized by live cell imaging.
Biotin conjugate 3 (Table 1) was prepared to facilitate isolation of diazonamide binding proteins using avidin-based affinity chromatography. […] As a negative control, seco analog 5 was synthesized: […]

[1] = tested on: wild-type human fibroblasts; experiment: Mitotic arrest (cell rounding) in wild-type human fibroblasts; type: cell-based; conditions: 10 nM for 30 hrs
Description: (§1) The OAT locus has been examined in fibroblasts derived from GA patients wherein various point and nonsense mutations have been characterized (20). Such cell lines offered another means to solidify the connection between OAT, diazonamide, and its anti-mitotic properties. When wild-type human fibroblasts were exposed to 10 nM diazonamide A for 30 hrs, >60% of cells rounded up—indicative in this case of mitotic arrest. […] Among the mutant cell lines examined only R154L and R180T variants express OAT protein.

[2] = tested on: fibroblast lines derived from gyrate atrophy patients harboring OAT mutations; experiment: Mitotic arrest (cell rounding) in gyrate atrophy patient fibroblasts; type: cell-based, human; conditions: OAT mutations: initiator methionine, R154L, R180T, W391 nonsense
Description: as §1

BS-C-1 and PTK2 culture = experiment: Interphase microtubules in BS-C-1 and PTK2 culture; type: cell-based; conditions: at GI50 concentrations
Description: COMPARE pattern analysis of observed cytotoxic/cytostatic activities implied a mechanistic correlation between diazonamide and microtubule de-polymerizing agents such as maytansine and vinblastine. […] To test this possibility, a synthetic variant of diazonamide A (2, Table 1) was prepared.

[3] = tested on: cultured human cancer cell; conditions: cited from earlier work
tubulin = conditions: cited from earlier work
[4] = tested on: endogenous OAT in HeLa cells; experiment: OAT siRNA knock-down in HeLa cells; type: cell-based, human; conditions: added to OAT siRNA-treated HeLa cells
Source text: OAT is well characterized as a mitochondrial matrix enzyme. In this context it regulates flux through the urea cycle and couples, indirectly, proline biosynthesis to the availability of fumarate for consumption in the TCA cycle (19). For reasons not completely understood, mutations in the human enzyme are associated with a progressive degeneration of the retina and choroid termed gyrate atrophy (20).

C#CC(N)CCC(=O)O (centres unmarked) [4-aminohex-5-ynoic acid]
inhibition of conversion of L-ornithine to L-Δ1-pyrroline-5-carboxylic acid (OAT enzymatic activity): suppressed the activity in a dose dependent manner

CC(C)[C@H](O)C(=O)N[C@H]1Cc2ccc3c(c2)[C@]24C5=C(N=C(O5)[C@H](C(C)C)NC1=O)c1nc(Cl)c(o1)-c1c(Cl)[nH]c5cccc(c15)-c1cccc2c1N[C@@H]4O3 [Compound 1, (-)-diazonamide A]
GI50 (HeLa cell): 5 nM
spindle phenotype (HeLa cells): multi-pole spindle phenotype with misaligned chromosomes
cells rounded up (mitotic arrest) [1]: > 60%
response of gyrate atrophy fibroblast lines [2]: resistant to the compound
impact on interphase microtubules (BS-C-1 and PTK2 culture): little impact on interphase microtubules
concentration inhibiting cultured human cancer cell growth [3]: low nanomolar concentrations
competition with vinca alkaloids or nocadazole for tubulin binding (tubulin): did not compete
purified tubulin polymerization in vitro (tubulin): inhibit purified tubulin polymerization in vitro

N=C(N)NCCC[C@H](N)C(=O)O [L-arginine]
blocking of cell death in OAT siRNA-treated cells [4]: failed to attenuate the rate of death or restore normal spindle assembly

CC(NC(=O)C(NC(=O)OCc1ccccc1)C(C)C)C(=O)NC(CC(=O)O)C(=O)CF (stereo not drawn) [Z-VAD] (Cbz-Val-Ala-Asp-CH2F; configuration not given here)
blocking of cell death in OAT siRNA-treated cells [4]: not blocked

Reference: patent US7622289B2, “Ornithine aminotransferase (OAT): a target for anticancer drugs” (Board of Regents, The University of Texas System, priority 2006, dated 2009)
